Columns and labels:
mononuclear cells = assay: Lymphocyte Transformation Test with PWM positive control in the presence of metals (toxicity); format: cell-based; settings: metals stabilized with citrate
Excerpt: In this example, each metal tested was stabilized with citrate.

lymphocytes = assay: Lymphocyte Transformation Test for metal sensitivity (stimulation index); format: cell-based; settings: SI≥4 positive
Excerpt: The Lymphocyte Transformation Test used for Metal Sensitivity Testing measures cell proliferation relative to a negative control.

Substance: polkweed mitogen [PWM]
- Stimulation Index for PWM in the presence of 0.1 mM metals (mononuclear cells; Donor LS 23 89053D): 217
- Stimulation Index for PWM in the presence of 0.1 mM metals (mononuclear cells; Donor LS 23 89054C): 40
- Stimulation Index for PWM in the presence of 0.1 mM metals (mononuclear cells; Donor LS 23 89058C): 202
- Stimulation Index for PWM in the presence of 0.1 mM metals (mononuclear cells; Donor LS 23 89063E): 362
- Stimulation Index (lymphocytes; Subject 19A, 6 Dec. 2016, assay with citrate): 108.15
- Stimulation Index (lymphocytes; Subject 19A, 15 Jul. 2016, assay without citrate): 124
- Stimulation Index (lymphocytes; Subject 21R, 3 Feb. 2017, assay with citrate): 75.85
- Stimulation Index (lymphocytes; Subject 21R, 19 Jul. 2016, assay without citrate): 223
- Stimulation Index (lymphocytes; Subject 20112, 11 Jan. 2017, assay with citrate): 691.43
- Stimulation Index (lymphocytes; Subject 20112, 11 Nov. 2016, assay without citrate): 669.51
- Stimulation Index (lymphocytes; Subject 71390, 4 Nov. 2016, assay without citrate): 119.6
- Stimulation Index (lymphocytes; Subject 71390, 11 Jan. 2017, assay with citrate): 128.6

Source: patent publication US11119094B2, “Aqueous citrate-buffered metal solutions” (CD DIAGNOSTICS, INC., priority 2017, dated 2021)
